One series has as its system M1-4HSC lysates. The series is described as follows: Degradation of Aβ42 and Aβ40 by M1-4HSC lysates (ELISA). The format is in vitro ADME. To be noted: for Degradation by M1-4HSC lysates: 1000 pg/ml, normalized to control without cells.
The subject of a further series is TGF-β in M1-4HSC. In words: TGF-β level in M1-4HSC treated with Aβ (Western blot, densitometry). The format is cell-based. To be noted: for Expression of TGF-β: Western blot; for Intensity of TGF-β bands (55 kDa, 44 kDa, 23 kDa) adjusted to GAPDH: densitometric calculations vs. untreated ctrl. An excerpt: (§1) The data are shown as means±SEM, *p<0.05, ***p<0.001.
A further series deals with α-SMA in M1-4HSC. In words: α-SMA level in M1-4HSC treated with Aβ (Western blot). The format is cell-based. To be noted: 1000 pg/ml.
From the text: as §1

The test system of the next series is Col-1 in M1-4HSC. The series is described as follows: Col-1 production in M1-4HSC treated with Aβ (ELISA). In kind it is cell-based. The note with it: M1-4HSC culture. A general note: An ELISA detects its analyte on a solid surface through an enzyme-linked reagent.
Series [1] has as its system astroglial primary cultures (APC). The series is described as follows: Aβ42 uptake from culture medium by astroglial primary cultures (ELISA of supernatant). The format is cell-based, mouse. The note with it: astrocytes (APC); 1000 pg/ml Aβ42 in medium; 48 h of incubation. The protocol: Astroglia-rich primary cultures (APC) were prepared from newborn C57/BL6 (Charles River) mouse brains as described elsewhere (Lourhmati A, Buniatian G H, Paul C, et al. Age-dependent astroglial vulnerability to hypoxia and glutamate: the role for erythropoietin. PLoS One 2013; 8:e77182.). Briefly, the cells obtained from 5-7 brains of newborn littermates were mechanically dissociated, centrifuged and plated onto cell culture flasks (1×10^6 cells/75 cm2) in DMEM with 4.5 g/l Glucose supplemented with 10% foetal calf serum, 100 μg/ml streptomycin sulphate, 100 units/ml penicillin G and […] (Biochrom AG, Berlin, Germany) in a humidified 10% CO2 atmosphere at 37° C.
(§2) After 24 h, supernatant was centrifuged at 1500 g for 15 minutes and frozen at −80° C. until analysis.
(§3) Therefore, as a control for inherent decrease of amyloid concentrations control samples containing only culture medium, without cells (w/c) were incubated with Aβ for the same periods of time.

Series [2] has as its system eNOS in hSEC (human liver endothelial cells). In words: eNOS synthesis by hSEC treated with Aβ (ELISA). In kind it is cell-based. An excerpt:
Means±SEM, *p<0.05, **p<0.01, ***p<0.001.

Another series deals with M1-4HSC. In words: Aβ42 uptake from culture medium by M1-4HSC (ELISA of supernatant). In kind it is cell-based. The procedure: as §2, §3
Series [3] is described as follows: Loss of Aβ in cell culture medium without cells (control samples). The format is physicochemical. The procedure: as §3
A further series deals with LX-2. The series is described as follows: Aβ42 uptake from culture medium by LX-2 (ELISA of supernatant). In kind it is cell-based, human. To be noted: 50,000-200,000 cells. The protocol: as §2
A further series has as its system HSC-T6. The series is described as follows: Aβ42 uptake from culture medium by HSC-T6 (ELISA of supernatant). In kind it is cell-based, rat. The procedure: as §2, §3
Another series concerns Primary murine HSC. The series is described as follows: Inhibition of Aβ40 and 42 degradation by HSC in response to sacubitrilat (ELISA of supernatant). To be noted: 48 h, with vs. without LBQ657. The format is cell-based. The procedure: FIG. 9 (A-B) shown an inhibition of Aβ40 and 42 degradation by HSC in response to sacubitrilat (LBQ657). Primary murine HSC were incubated with 1000 pg/ml Aβ40 or 42 with and without LBQ657. The content of Aβ in the cell culture supernatant was measured by ELISA 48 h after incubation with Aβ40 or 42 with and without LBQ657.

Series [4] concerns zinc-dependent Aβ-degrading enzymes (ACE, ECE, NEP) in M1-4HSC lysates. The series is described as follows: Inhibition by EGTA of Aβ40/42 degradation in M1-4HSC lysates. The format is biochemical. To be noted: 5 mM EGTA; 30 and 60 minutes. The procedure: To quantify the Aβ42-degading ability of M1-4HSC lysate's, cell lysates from M1-4HSC (50,000 cells/ml) were obtained by 2 freezing thawing cycles at −80° C. and centrifugation for 10 min at 20,000 g.
To confirm that the disappearance of Aβ from HSC lysates reflects its enzymatic degradation rather than non-specific loss that can occur in cell lysates the activity of zinc-dependent AR-degrading enzymes comprising angiotensin converting enzyme (ACE) and endothelin converting enzyme (ECE) known to be present in HSC1 as well as NEP was blocked by 5 mM EGTA (white bars in FIG. 1D and FIG. 1E).

The test system of series [5] is VEGF in liver sinusoidal endothelial cells. In words: VEGF expression in liver sinusoidal endothelial cells exposed to Aβ. The format is cell-based.
The mark [6] stands for this setting: after 30 minutes of incubation with M1-4HSC lysates.

Entries after “also recorded” stand apart in the source; their conditions may differ.

With amyloid beta 40 [Aβ40], the entries for the “Level compared to the initial level in control samples without cell lysates” value in the series on M1-4HSC lysates (setting [6]) and with M1-4HSC lysates (after 60 minutes of incubation with M1-4HSC lysates) were 50% and 25%, respectively. The “Degradation by M1-4HSC lysates” value with M1-4HSC lysates (after 30 minutes) worked out at 50%; in the series with M1-4HSC lysates (after 60 minutes), 75%. In addition, the “Expression of TGF-β” value with TGF-β in M1-4HSC was “reduced the expression”. In addition, the “Intensity of TGF-β bands (55 kDa, 44 kDa, 23 kDa) adjusted to GAPDH” value in the series with TGF-β in M1-4HSC is reported as “capable of decreasing only the 44 kDa band”. Further, in the series on α-SMA in M1-4HSC, the “Expression of α-SMA” value is “reduced the expression”. Also, the “Col-1 production (in words)” value in the series with Col-1 in M1-4HSC is reported as “only a slight reduction”.

For amyloid beta 42 [Aβ42], in series [1], the “Aβ42 internalized by cells, of the remaining part available in culture medium” value turned out to be 28%. The “Level compared to the initial level in control samples without cell lysates” value with M1-4HSC lysates (setting [6]) is 50%. In addition, in the series with M1-4HSC lysates (after 30 minutes), the “Degradation by M1-4HSC lysates” value turned out to be 50%. Besides, the eNOS synthesis result in series [2] is “upregulation of eNOS synthesis”. Besides, in the series on TGF-β in M1-4HSC, the “Suppression of TGF-β synthesis, Aβ42 compared with Aβ40” value is given as “more potent than Aβ40”; the “Expression of TGF-β” value is listed as “reduced the expression”; the “Intensity of TGF-β bands (55 kDa, 44 kDa, 23 kDa) adjusted to GAPDH” value is on record as “significantly decreased intensity”. The “Expression of α-SMA” value in the series on α-SMA in M1-4HSC is on record as “reduced the expression”. Also, the “Uptake of Aβ42 vs. APC (decrease in cell culture supernatant)” value in the series with M1-4HSC (M1-4HSC vs. APC, ELISA) is listed as “two-fold higher uptake”. For the same molecule, in the series on M1-4HSC (M1-4HSC, 1000 pg/ml Aβ42 in medium, 48 h of incubation), the “Aβ42 internalized by cells, of the remaining part available in culture medium” value is listed as 55%. In addition, in [3] (from 1000 pg/ml Aβ42 in culture medium, after 48 h of incubation), the “Peptide absorbed on plastic carrier” value was “about 50%”. The “Amount of Aβ42 internalized by LX-2” value in the series on LX-2 was “grew with increasing number of cells in culture”. Also, the “Col-1 production (in words)” value in the series with Col-1 in M1-4HSC is on record as “suppression of Col-1 production”. In the series with HSC-T6, the “Uptake of Aβ42 vs. APC (decrease in cell culture supernatant)” value is given as “two-fold higher uptake”.

With `C[C@H](C[C@@H](Cc1ccc(-c2ccccc2)cc1)NC(=O)CCC(=O)O)C(=O)O` [LBQ657, Sacubitrilat], the “Aβ40 degradation by HSC (content of Aβ in supernatant)” value in the series with Primary murine HSC (1000 pg/ml Aβ40) is “Decreased degradation of Aβ”. Further, in the series on Primary murine HSC (1000 pg/ml Aβ42), the “Aβ42 degradation by HSC (content of Aβ in supernatant)” value is “Decreased degradation of Aβ”.

For the molecule `O=C(O)CN(CCOCCOCCN(CC(=O)O)CC(=O)O)CC(=O)O` [EGTA], the “Effect on degradation of Aβ40/42 by M1-4HSC lysates” value in [4] is “dramatically inhibited; also recorded: abolished the degradation”.

On to amyloid beta [Aβ], for which the “Expression of liver permeability marker VEGF” value in [5] is listed as “increase in expression”. In addition, the eNOS synthesis result in [2] is “increased synthesis of eNOS”. Moreover, the “Loss of Aβ after incubation with cell culture medium in the absence of cells” value in series [3] (24-48 h, data not shown) is “over 50%”.

Values taken from patent US20220088130A1, “COMPOUNDS AND METHODS FOR TREATING LIVER DISEASES” (Eberhard Karls Universität Tübingen Medizinische Fakultät, priority 2019, published 2022).
